Laboratory results from US11484607B2, “PSMA-targeted NIR dyes and their uses” (On Target Laboratories, LLC, priority 2015, dated 2022).

Assays:
PSMA-negative PC3 cells = test: OTL78 binding to PSMA-negative cells, cell bound fluorescence by fluorometer; set-up: species or system human; details: 30 min at 4° C.
Description: (§1) For OTL78 binding affinity, 22Rv1 or PC3 cells were seeded into a T75 flask and allowed to form a monolayer over 48 h. After trypsin digestion, cells were transferred into centrifuge tubes (1×10^6 cells/tube) and centrifuged. The medium was replaced with fresh medium containing increasing concentration of OTL78 and incubated for 30 min at 4° C. After rinsing with fresh medium (2×1.0 mL) and saline (1×1.0 mL), cells were lysed with 1% SDS with in saline (1.0 mL) and cell bound fluorescence was analyzed using a fluorometer (Cary Eclipse, Agilent Technologies). The binding affinity (Kd) was calculated using a plot of percent cell bound fluorescence versus concentration using GraphPad Prism 6.

A549 tumor xenografts = test: OTL78 whole body imaging and tissue biodistribution, subcutaneous tumor; format: in vivo, mice; details: 10 nmol, 2 h
Description: (§3) Whole body Imaging & Tissue biodistribution: Seven-week-old male nu/nu mice were inoculated subcutaneously with 5.0×106 22Rv1, LNCaP, PC3 or A549 cells/mouse in 50% high concentrated matrigel with RPMI1640 medium on the shoulder. Growth of the tumors was measured in perpendicular directions every 2 days using a caliper (body weights were monitored on the same schedule), and the volumes of the tumors were calculated as 0.5×L×W2 (L=longest axis and W=axis perpendicular to L in millimeters). Once tumors reached approximately 300-400 mm3 in volume, animals (3-5 mice/group) were intravenously injected with appropriate dose of OTL78 in saline.
(§4) For whole body imaging and biodistribution studies, animals were euthanized after 2 h of administration of OTL78 by CO2 asphyxiation. For time dependent studies, animals were imaged under anesthesia using isoflurane. Imaging experiments were then performed using IVIS or AMI image systems. Following whole body imaging, animals were dissected and selected tissues were analyzed for fluorescence activity using IVIS or AMI image system and ROI of the tissues were calculated using Living Image 4.0 software or AMIView Image Analysis Software.

PSMA on 22Rv1 cells = target: T1, PSMA on 22Rv1 cells (Homo sapiens, UniProt Q04609); test: OTL78 binding affinity (Kd), cell bound fluorescence by fluorometer; details: 30 min at 4° C.
T1 construct: host or cells: 22Rv1 human prostate cancer cells
T1 sequence (Q04609 whole entry): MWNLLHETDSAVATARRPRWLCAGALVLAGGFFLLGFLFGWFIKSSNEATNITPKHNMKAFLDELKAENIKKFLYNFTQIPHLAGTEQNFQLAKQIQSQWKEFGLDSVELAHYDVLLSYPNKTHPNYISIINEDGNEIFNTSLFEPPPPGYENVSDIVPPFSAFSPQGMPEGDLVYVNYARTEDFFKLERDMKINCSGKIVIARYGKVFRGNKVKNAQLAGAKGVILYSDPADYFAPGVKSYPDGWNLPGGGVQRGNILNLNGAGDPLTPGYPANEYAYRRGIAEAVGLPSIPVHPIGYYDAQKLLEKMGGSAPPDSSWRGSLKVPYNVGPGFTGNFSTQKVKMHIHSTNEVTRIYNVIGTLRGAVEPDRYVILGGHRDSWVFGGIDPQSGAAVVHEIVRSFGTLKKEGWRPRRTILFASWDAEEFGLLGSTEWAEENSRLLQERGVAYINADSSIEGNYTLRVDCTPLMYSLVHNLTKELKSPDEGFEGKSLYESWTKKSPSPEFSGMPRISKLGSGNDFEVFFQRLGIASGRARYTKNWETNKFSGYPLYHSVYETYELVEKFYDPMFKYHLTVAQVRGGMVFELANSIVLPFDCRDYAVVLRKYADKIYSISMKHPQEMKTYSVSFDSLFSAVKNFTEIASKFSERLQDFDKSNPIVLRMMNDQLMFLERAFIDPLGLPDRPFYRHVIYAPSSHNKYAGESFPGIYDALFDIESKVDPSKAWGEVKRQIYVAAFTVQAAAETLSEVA
Description: as §1

22Rv1 cells = test: Binding and internalization of OTL78 by epifluorescence microscopy; format: cell-based, human; details: 100 nM, 1 h
Description: (§2) Confocal Microscopy: 22Rv1, LNCaP, or PC3 cells (50,000 cells/well in 1 mL) were seeded into poly-D-lysine microwell Petri dishes and allowed cells to form monolayers over 12 h. Spent medium was replaced with fresh medium containing OTL78 (100 nM) and cells were incubated for 1 h at 37° C. or 4° C. After rinsing with fresh medium (2×1.0 mL) and saline (lx 1.0 mL), fluorescence images were acquired using an epi-microscopy.

PC3 cells = test: as above; format: cell-based, human; details: 100 nM, 1 h
Description: as §2

LNCaP cells = test: as above; format: cell-based, human; details: 100 nM, 1 h
Description: as §2

LNCaP tumor xenografts = test: OTL78 whole body imaging and tissue biodistribution, subcutaneous tumor; format: in vivo, mice; details: 10 nmol, 2 h
Description: as §3, §4

[1] = Excitation and emission spectra by fluorometer; format: physicochemical; details: same concentration, 1 μM in 1 mL of PBS
Description: FIG. 38B—Excitation (Ex) & emission (Em) spectra of OTL78 (1 μM) and S0456 (1 μM) in 1 mL of PBS obtained using fluorometer.
Results and Conclusions: In an effort to improve limitations in current clinical practice of radical prostatectomy and tumor-specific imaging agents that are in the preclinical stages, OTL78 was assembled using: (i) a high affinity PSMA-targeting ligand (coined DUPA), (ii) a rationally designed 14 atoms long polyethylene glycol-dipeptide linker, and (iii) an inexpensive NIR dye ([…]) named S0456 (see FIG. 38A for the chemical structure). The dipeptide consisting of phenylalanine-tyrosine was designed to fit to the contours and chemistry of the tunnel accessing the binding pocket of the PSMA protein.

Question: With CC1(C)C(/C=C/C2=C(Oc3ccc(C[C@H](NC(=O)[C@H](Cc4ccccc4)NC(=O)CCOCCOCCNC(=O)CC[C@H](NC(=O)N[C@@H](CCC(=O)O)C(=O)O)C(=O)O)C(=O)O)cc3)C(=C/C=C3/N(CCCCS(=O)(=O)O)c4ccc(S(=O)(=O)O)cc4C3(C)C)/CCC2)=[N+](CCCCS(=O)(=O)[O-])c2ccc(S(=O)(=O)O)cc21 [OTL78] as the compound, how does the “binding to PSMA-negative PC3 cells” value (PSMA-negative PC3 cells) read?
Answer: did not bind

Question: What about the “fluorescence intensity of A549 tumors compared to 22Rv1 tumors” value (A549 tumor xenografts) of the same compound?
Answer: ~6 folds less

Question: And the Kd (PSMA on 22Rv1 cells)?
Answer: 4.7 nM

Question: What about the “labelling of 22Rv1 cells” value (22Rv1 cells) of the same compound?
Answer: able to efficiently label

Question: And the “labelling of PC3 cells” value (PC3 cells)?
Answer: not PC3 cells

Question: And the “labelling of LNCaP cells” value (LNCaP cells)?
Answer: able to efficiently label

Question: And the “accumulation in LNCaP tumors” value (LNCaP tumor xenografts)?
Answer: accumulated predominantly

Question: What about the “enhancement of the fluorescence of S0456” value [1] of the same compound?
Answer: ≥ 2
